Patent publication US8906914B2, “Ethylene diamine modulators of fatty acid hydrolase” (priority 2009, dated 2014)
Counter-ions that a name gives are not always drawn.

Key:
FAAH = target: T1, FAAH (Homo sapiens, UniProt O00519); assay: Human FAAH assay (Assay Method 1), 3H-anandamide hydrolysis in cell homogenate; type: biochemical; set-up: expressed in transfected cells; alternatively T84 frozen cell pellets (endogenous FAAH)
T1 sequence (O00519 1-579): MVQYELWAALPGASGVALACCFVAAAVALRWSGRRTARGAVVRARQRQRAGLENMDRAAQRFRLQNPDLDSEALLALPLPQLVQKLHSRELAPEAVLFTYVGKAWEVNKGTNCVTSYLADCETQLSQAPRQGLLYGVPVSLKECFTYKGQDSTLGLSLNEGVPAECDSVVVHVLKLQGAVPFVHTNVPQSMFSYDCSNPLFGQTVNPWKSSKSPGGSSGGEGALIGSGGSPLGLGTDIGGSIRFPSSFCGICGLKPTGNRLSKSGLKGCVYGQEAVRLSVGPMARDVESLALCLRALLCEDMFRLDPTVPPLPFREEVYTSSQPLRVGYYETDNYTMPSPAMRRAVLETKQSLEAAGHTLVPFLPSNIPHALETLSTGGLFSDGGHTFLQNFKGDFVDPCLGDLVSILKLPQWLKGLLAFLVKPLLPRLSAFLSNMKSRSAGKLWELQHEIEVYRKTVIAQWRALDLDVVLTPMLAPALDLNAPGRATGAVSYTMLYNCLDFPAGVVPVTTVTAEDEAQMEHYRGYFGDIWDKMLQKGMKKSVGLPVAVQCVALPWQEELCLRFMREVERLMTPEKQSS
How it was run: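 Homogenate of SK-N-MC cells stably transfected with human FAAH, incubated with compound and 80 nM (final) 3H-anandamide for 1 h at rt. Released 3H-ethanolamine separated from substrate on activated charcoal by centrifugation and counted by scintillation; ">" values denote solubility limit or top concentration tested.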

Rat FAAH-1 = target: T2, Rat FAAH-1 (Rattus norvegicus, UniProt P97612); assay: Rat FAAH-1 assay (Assay Method 2), 3H-anandamide hydrolysis in cell homogenate; type: biochemical
T2 construct: expressed in transfected cells
T2 sequence (P97612 1-579): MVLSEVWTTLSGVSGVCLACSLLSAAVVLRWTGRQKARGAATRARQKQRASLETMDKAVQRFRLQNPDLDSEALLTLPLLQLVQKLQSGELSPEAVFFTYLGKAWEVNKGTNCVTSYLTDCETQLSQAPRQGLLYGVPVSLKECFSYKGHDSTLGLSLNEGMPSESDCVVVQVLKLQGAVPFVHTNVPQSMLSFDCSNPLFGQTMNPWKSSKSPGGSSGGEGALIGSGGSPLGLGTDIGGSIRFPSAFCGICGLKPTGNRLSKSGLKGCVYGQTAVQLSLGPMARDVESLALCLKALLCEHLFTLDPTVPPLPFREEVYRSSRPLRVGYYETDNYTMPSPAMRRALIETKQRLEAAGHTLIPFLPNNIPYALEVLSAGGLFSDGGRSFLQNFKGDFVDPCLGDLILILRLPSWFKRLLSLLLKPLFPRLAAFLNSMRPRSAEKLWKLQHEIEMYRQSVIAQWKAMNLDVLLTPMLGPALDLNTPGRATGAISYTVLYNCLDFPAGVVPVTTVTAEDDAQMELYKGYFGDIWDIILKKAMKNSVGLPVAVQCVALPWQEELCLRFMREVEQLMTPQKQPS
How it was run: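 Homogenate of SK-N-MC cells stably transfected with rat FAAH cDNA, incubated with test compound and 80 nM final 3H-anandamide (ethanolamine-labelled) for 1 h at rt. Released 3H-ethanolamine separated from substrate on activated charcoal filters by centrifugation and counted by scintillation.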

IC50 (FAAH) [nM]	IC50 (Rat FAAH-1) [nM]	Structure (SMILES)
50	170	N[C@@H](CNc1cc(-c2ccc(OC(F)(F)F)c(F)c2)ncn1)c1ccccc1 [Example 8, (1R)—N^2-{6-[3-Fluoro-4-(trifluoromethoxy)phenyl]pyrimidin-4-yl}-1-phenylethane-1,2-diamine hydrochloride acid salt]
26	84	CCOc1ccc(-c2cc(NC[C@H](N)c3ccccc3)ncn2)cc1C(F)(F)F [Example 10, (1R)—N^2-{6-[4-Ethoxy-3-(trifluoromethyl)phenyl]pyrimidin-4-yl}-1-phenylethane-1,2-diamine hydrochloride acid salt]
600	900	N[C@H](CNc1cc(-c2ccc(C(F)(F)F)c(Cl)c2)ncn1)c1ccc(F)cc1 [Example 28, (1S)—N^2-[6-(3-Chloro-4-trifluoromethyl-phenyl)-pyrimidin-4-yl]-1-(4-fluoro-phenyl)-ethane-1,2-diamine]
3000	3000	N[C@H](CNc1cc(-c2ccc(C(F)(F)F)c(Cl)c2)ncn1)c1ccc(F)c(Cl)c1 [Example 46, (1S)—N^2-1-(3-Chloro-4-fluoro-phenyl)-[6-(3-chloro-4-trifluoromethyl-phenyl)-pyrimidin-4-yl]-ethane-1,2-diamine]

Second part, the molecule before the results:

Structure (SMILES)	IC50 (FAAH) [nM]	IC50 (Rat FAAH-1) [nM]
N[C@@H](CNc1cc(-c2ccc(C(F)(F)F)c(Cl)c2)ncn1)c1ccc(Cl)c(Cl)c1 [Example 43, (1R)—N^2-[6-(3-Chloro-4-trifluoromethyl-phenyl)-pyrimidin-4-yl]-1-(3,4-dichloro-phenyl)-ethane-1,2-diamine]	200	95
CC(C)(C)OC(=O)N[C@@H](CNc1cc(-c2ccc(C(F)(F)F)c(Cl)c2)ncn1)c1ccccc1 [Example 2, (1R)-{2-[6-(3-Chloro-4-trifluoromethyl-phenyl)-pyrimidin-4-ylamino]-1-phenyl-ethyl}-carbamic acid tert-butyl ester]	330	8000
N#Cc1ccc([C@@H](N)CNc2cc(-c3ccc(C(F)(F)F)c(Cl)c3)ncn2)cc1F [Example 52, (1R)-4-{1-Amino-2-[6-(3-chloro-4-trifluoromethyl-phenyl)-pyrimidin-4-ylamino]-ethyl}-2-fluoro-benzonitrile]	130	240
O=C(N[C@@H](CNc1cc(-c2ccc(C(F)(F)F)c(Cl)c2)ncn1)c1ccccc1)C(F)(F)F [Example 26, N-[(1R)-2-({6-[3-chloro-4-(trifluoromethyl)phenyl]pyrimidin-4-yl}amino)-1-phenylethyl]-2,2,2-trifluoroacetamide]	1600	> 10000
N[C@H](CNc1cc(-c2ccc(C(F)(F)F)c(Cl)c2)ncn1)c1ccc(F)c(F)c1 [Example 40, (1S)—N^2-[6-(3-Chloro-4-trifluoromethyl-phenyl)-pyrimidin-4-yl]-1-(3,4-difluoro-phenyl)-ethane-1,2-diamine, trifluoroacetic acid salt]	1000	5000
N#Cc1ccc([C@H](N)CNc2cc(-c3ccc(C(F)(F)F)c(Cl)c3)ncn2)cc1 [Example 33, (1S)-4-{1-Amino-2-[6-(3-chloro-4-trifluoromethyl-phenyl)-pyrimidin-4-ylamino]-ethyl}-benzonitrile]	570	1000
CSc1ccc([C@@H](N)CNc2cc(-c3ccc(C(F)(F)F)c(Cl)c3)ncn2)cc1 [Example 54, (1R)—N^2-[6-(3-Chloro-4-trifluoromethyl-phenyl)-pyrimidin-4-yl]-1-(4-methylsulfanyl-phenyl)-ethane-1,2-diamine]	220	150
N[C@@H](CNc1cc(-c2ccc3c(C(F)(F)F)noc3c2)ncn1)c1ccc(F)cc1 [Example 65, (1R)—N^2-1-(4-Fluoro-phenyl)-[6-(3-trifluoromethyl-benzo[d]isoxazol-6-yl)-pyrimidin-4-yl]ethane-1,2-diamine, trifluoroacetic acid salt]	45	57
